Results taken from PubChem BioAssay (NCI).
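Results reflect a 48-hour exposure of cells in 96-well plates to compound at five concentrations. GI50 marks 50% less growth. TGI: concentration producing complete growth inhibition.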

Assays:
Assay in all cases: NCI-60 cell line screen, 48 h
[1] = test system: UO-31 renal
[2] = test system: OVCAR-3 ovarian
[3] = test system: SNB-75 CNS
[4] = test system: OVCAR-5 ovarian
[5] = test system: CAKI-1 renal
[6] = test system: MDA-MB-435
[7] = test system: SN12C renal
[8] = test system: T-47D breast
[9] = test system: RPMI-8226 leukemia
[10] = test system: HCC-2998 colon
[11] = test system: SW-620 colon
[12] = test system: ACHN renal
[13] = test system: SK-MEL-2 melanoma
[14] = test system: NCI-H460 lung
[15] = test system: SK-MEL-5 melanoma
[16] = test system: A498 renal
[17] = test system: MALME-3M melanoma
[18] = test system: SR leukemia
[19] = test system: HL-60(TB) leukemia
[20] = test system: CCRF-CEM leukemia
[21] = test system: MOLT-4 leukemia
[22] = test system: HS 578T breast
[23] = test system: KM12 colon
[24] = test system: TK-10 renal
[25] = test system: DU-145 prostate
[26] = test system: K-562 leukemia
[27] = test system: HT29 colon
[28] = test system: BT-549 breast
[29] = test system: MDA-MB-231 breast
[30] = test system: SNB-19 CNS
[31] = test system: SK-OV-3 ovarian
[32] = test system: RXF 393 renal
[33] = test system: EKVX NSCLC
[34] = test system: COLO 205 colon
[35] = test system: UACC-62 melanoma
[36] = test system: HOP-92 NSCLC
[37] = test system: M14 melanoma
[38] = test system: MCF7 breast
[39] = test system: IGROV1 ovarian
[40] = test system: 786-0 renal
[41] = test system: OVCAR-8 ovarian
[42] = test system: HCT-15 colon
[43] = test system: PC-3 prostate
[44] = test system: SF-539 CNS
[45] = test system: U251 CNS
[46] = test system: SK-MEL-28 melanoma
[47] = test system: NCI-H522 lung
[48] = test system: SF-268 CNS
[49] = test system: UACC-257 melanoma
[50] = test system: OVCAR-4 ovarian
[51] = test system: LOX IMVI melanoma
[52] = test system: SF-295 CNS
[53] = test system: NCI-H226 lung
[54] = test system: HCT-116 colon
[55] = test system: A549 NSCLC
[56] = test system: NCI/ADR-RES ovarian
[57] = test system: HOP-62 NSCLC

`COc1ccc2[nH]cc(/C=N/Nc3ccnc4cc(Cl)ccc34)c2c1` gave a GI50 [1] of 1470 nM, a TGI [1] of 2780 nM and a GI50 [2] of 1580 nM. It also gave a TGI [2] of 3.16 µM, a GI50 [3] of 1560 nM and a TGI [3] of 2.93 µM. It also gave a GI50 [4] of 1490 nM, a TGI [4] of 2.84 µM and a GI50 [5] of 1540 nM. The TGI [5] was 2.91 µM, the GI50 [6] was 1670 nM and the TGI [6] was 3.06 µM. It also gave a GI50 [7] of 1600 nM, a TGI [7] of 3 µM and a GI50 [8] of 1280 nM. It also gave a TGI [8] of 3.59 µM, a GI50 [9] of 271 nM and a TGI [9] of 0.671 µM. The GI50 [10] was 1670 nM, the TGI [10] was 3.19 µM and the GI50 [11] was 186 nM. It also gave a TGI [11] of 0.379 µM, a GI50 [12] of 346 nM and a TGI [12] of 1.07 µM. The GI50 [13] was 1830 nM, the TGI [13] was 3.48 µM and the GI50 [14] was 202 nM. It also gave a TGI [14] of 0.409 µM, a GI50 [15] of 1650 nM and a TGI [15] of 3.06 µM. For the same compound, the GI50 [16] was 1490 nM, the TGI [16] was 2.83 µM and the GI50 [17] was 1760 nM. The TGI [17] was 3.22 µM, the GI50 [18] was 171 nM and the TGI [18] was 4.14 µM. For the same compound, the GI50 [19] was 265 nM, the TGI [19] was 859 nM and the GI50 [20] was 304 nM. For the same compound, the TGI [20] was 1.12 µM, the GI50 [21] was 265 nM and the TGI [21] was 713 nM. The GI50 [22] was 1990 nM, the TGI [22] was 4.81 µM and the GI50 [23] was 1650 nM. The TGI [23] was 3.92 µM, the GI50 [24] was 1900 nM and the TGI [24] was 3.35 µM. For the same compound, the GI50 [25] was 729 nM, the TGI [25] was 1.98 µM and the GI50 [26] was 300 nM. The TGI [26] was greater than 100 µM, the GI50 [27] was 219 nM and the TGI [27] was 482 nM. The GI50 [28] was 1680 nM and the TGI [28] was 3.09 µM.

For `OC1CCN(CCCOc2c3ccccc3nc3c2oc2ccccc23)CC1`, the GI50 [29] was 2370 nM, the TGI [29] was 11.1 µM and the GI50 [1] was 1180 nM. The TGI [1] was 3130 nM, the GI50 [30] was 2360 nM and the TGI [30] was 14.8 µM. For the same compound, the GI50 [31] was 2560 nM, the TGI [31] was 8.7 µM and the GI50 [32] was 1320 nM. It also gave a TGI [32] of 3.64 µM, a GI50 [2] of 3610 nM and a TGI [2] of 24.9 µM. It also gave a GI50 [33] of 2790 nM, a TGI [33] of 12.9 µM and a GI50 [3] of 1860 nM. The TGI [3] was 4.3 µM, the GI50 [34] was 1060 nM and the TGI [34] was 2830 nM. The GI50 [4] was 2470 nM, the TGI [4] was 9.49 µM and the GI50 [5] was 1670 nM. It also gave a TGI [5] of 12.9 µM, a GI50 [6] of 2310 nM and a TGI [6] of 6.79 µM. For the same compound, the GI50 [35] was 1860 nM, the TGI [35] was 4.43 µM and the GI50 [7] was 1700 nM. For the same compound, the TGI [7] was 13.5 µM, the GI50 [36] was 853 nM and the TGI [36] was 4.28 µM. It also gave a GI50 [8] of 2510 nM, a TGI [8] of 7.27 µM and a GI50 [37] of 2390 nM. The TGI [37] was 7.89 µM, the GI50 [9] was 2470 nM and the TGI [9] was 7.46 µM. For the same compound, the GI50 [10] was 1460 nM, the TGI [10] was 3.76 µM and the GI50 [38] was 2310 nM. The TGI [38] was 10.1 µM, the GI50 [39] was 2610 nM and the TGI [39] was 11.3 µM. It also gave a GI50 [11] of 825 nM, a TGI [11] of 11.9 µM and a GI50 [40] of 2300 nM. The TGI [40] was 18 µM, the GI50 [41] was 1810 nM and the TGI [41] was 6.71 µM. For the same compound, the GI50 [12] was 800 nM, the TGI [12] was 25.2 µM and the GI50 [42] was 2020 nM. It also gave a TGI [42] of 9.73 µM, a GI50 [43] of 2120 nM and a TGI [43] of 7.93 µM. It also gave a GI50 [44] of 2020 nM, a TGI [44] of 6.4 µM and a GI50 [13] of 1930 nM. The TGI [13] was 3.59 µM, the GI50 [45] was 2140 nM and the TGI [45] was 12.2 µM. For the same compound, the GI50 [14] was 1590 nM, the TGI [14] was 11.1 µM and the GI50 [46] was 1930 nM. It also gave a TGI [46] of 3.81 µM, a GI50 [47] of 1570 nM and a TGI [47] of 4.38 µM. For the same compound, the GI50 [15] was 1770 nM, the TGI [15] was 3.2 µM and the GI50 [16] was 1730 nM. The TGI [16] was 3.38 µM, the GI50 [48] was 2530 nM and the TGI [48] was 14.8 µM. For the same compound, the GI50 [49] was 1830 nM, the TGI [49] was 3.72 µM and the GI50 [50] was 2140 nM. It also gave a TGI [50] of 8.63 µM, a GI50 [51] of 626 nM and a TGI [51] of 3.51 µM. The GI50 [17] was 1860 nM, the TGI [17] was 3.95 µM and the GI50 [52] was 2390 nM. It also gave a TGI [52] of 10.5 µM, a GI50 [20] of 2120 nM and a TGI [20] of 16.3 µM. For the same compound, the GI50 [53] was 1900 nM, the TGI [53] was 4.74 µM and the GI50 [22] was 2380 nM. It also gave a TGI [22] of 8.83 µM, a GI50 [23] of 2990 nM and a TGI [23] of 49.6 µM. The GI50 [54] was 505 nM, the TGI [54] was 12.3 µM and the GI50 [24] was 2410 nM. For the same compound, the TGI [24] was 7.73 µM, the GI50 [25] was 3660 nM and the TGI [25] was 23.1 µM. The GI50 [55] was 2540 nM, the TGI [55] was 16.4 µM and the GI50 [27] was 1100 nM. It also gave a TGI [27] of 3650 nM, a GI50 [56] of 1030 nM and a TGI [56] of 8.1 µM. It also gave a GI50 [28] of 2800 nM, a TGI [28] of 8.88 µM and a GI50 [57] of 2320 nM. For the same compound, the TGI [57] was 11.9 µM.
